Test results as given in patent publication US20240409519A1, “HYDROGENATED QUINOXALINES” (OTSUKA PHARMACEUTICAL CO., LTD., priority 2021, published 2024).

Experiments:
[1] = target: T1, serotonin (5-HT) uptake (Rattus norvegicus, UniProt P31652); experiment: Serotonin (5-HT) uptake inhibitory activity in rat brain synaptosome; type: biochemical; conditions: rat frontal cortex synaptosome, tritium-labeled 5-HT 8 nM; read-out: IC50 (nM), serotonin (5-HT) uptake inhibition
T1 construct: used as crude synaptosomal fraction; from tissue; host or cells: rat frontal cortex, crude synaptosomal fraction
T1 sequence (P31652 whole entry): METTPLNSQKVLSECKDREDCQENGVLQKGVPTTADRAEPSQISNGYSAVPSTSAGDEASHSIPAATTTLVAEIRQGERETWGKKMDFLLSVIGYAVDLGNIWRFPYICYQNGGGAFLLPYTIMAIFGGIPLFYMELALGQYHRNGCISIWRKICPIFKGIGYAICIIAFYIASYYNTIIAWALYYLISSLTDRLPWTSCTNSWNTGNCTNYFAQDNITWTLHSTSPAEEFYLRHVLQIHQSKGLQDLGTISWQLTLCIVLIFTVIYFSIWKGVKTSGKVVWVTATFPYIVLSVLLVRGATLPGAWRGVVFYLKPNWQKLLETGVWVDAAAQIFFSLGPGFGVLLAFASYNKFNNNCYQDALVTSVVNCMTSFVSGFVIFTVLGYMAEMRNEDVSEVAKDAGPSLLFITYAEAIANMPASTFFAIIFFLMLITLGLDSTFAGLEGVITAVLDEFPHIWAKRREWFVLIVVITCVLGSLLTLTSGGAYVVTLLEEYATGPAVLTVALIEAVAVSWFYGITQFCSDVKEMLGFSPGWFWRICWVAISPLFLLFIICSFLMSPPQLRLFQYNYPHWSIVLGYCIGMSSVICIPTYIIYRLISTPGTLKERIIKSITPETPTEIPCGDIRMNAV
Method: (§1) Male Wistar rats were decapitated, each brain was removed, and the frontal cortex was cut out. […] The homogenate was centrifuged at 1000 g at 4° C. for 10 minutes, and the supernatant was further centrifuged at 20000 g at 4° C. for 20 minutes. The pellet was suspended in an incubation buffer (20 mM Hepes buffer (pH 7.4) containing 10 mM glucose, 145 mM sodium chloride, 4.5 mM potassium chloride, 1.2 mM magnesium chloride and 1.5 mM calcium chloride) and used as crude synaptosomal fraction.
(§2) Each well of a 96-well round-bottom plate was used for the uptake reaction in a total volume of 200 μL solution containing purgurin (final concentration 10 μM) and ascorbic acid (final concentration 0.2 mg/mL). In other words, solvent, unlabeled 5-HT or step-diluted test compound was added to each well, and one-tenth of the final volume of the synaptosomal fraction was added to each well, followed by pre-incubation at 37° C. for 10 minutes, and then tritium-labeled 5-HT solution (final concentration 8 nM) was added and the uptake reaction was initiated at 37° C. After 10 minutes, the uptake reaction was terminated by suction filtration onto a 96-well glass fiber filter plate. The filters were rinsed with cold physi-ological saline solution, dried thoroughly, and micro scintillation 0 (Perkin-Elmer) was added thereto. Then, the residual radioactivity on the filters was measured.
The uptake value when only solvent was added was set as 100%, the uptake value when unlabeled 5-HT (final concentration 10 μM) was added as 0% (nonspecific uptake value), and the 50% inhibitory concentration was calculated from the concentration of the test compound and its inhibitory activity.

[2] = target: T2, dopamine (DA) uptake (Rattus norvegicus, UniProt P23977); experiment: Dopamine (DA) uptake inhibitory activity using rat brain synaptosome; type: biochemical; conditions: rat striatum synaptosome, tritium-labeled DA 2 nM; read-out: IC50 (nM), dopamine (DA) uptake inhibition
T2 construct: used as crude synaptosomal fraction; from tissue; host or cells: rat striatum, crude synaptosomal fraction
T2 sequence (P23977 whole entry): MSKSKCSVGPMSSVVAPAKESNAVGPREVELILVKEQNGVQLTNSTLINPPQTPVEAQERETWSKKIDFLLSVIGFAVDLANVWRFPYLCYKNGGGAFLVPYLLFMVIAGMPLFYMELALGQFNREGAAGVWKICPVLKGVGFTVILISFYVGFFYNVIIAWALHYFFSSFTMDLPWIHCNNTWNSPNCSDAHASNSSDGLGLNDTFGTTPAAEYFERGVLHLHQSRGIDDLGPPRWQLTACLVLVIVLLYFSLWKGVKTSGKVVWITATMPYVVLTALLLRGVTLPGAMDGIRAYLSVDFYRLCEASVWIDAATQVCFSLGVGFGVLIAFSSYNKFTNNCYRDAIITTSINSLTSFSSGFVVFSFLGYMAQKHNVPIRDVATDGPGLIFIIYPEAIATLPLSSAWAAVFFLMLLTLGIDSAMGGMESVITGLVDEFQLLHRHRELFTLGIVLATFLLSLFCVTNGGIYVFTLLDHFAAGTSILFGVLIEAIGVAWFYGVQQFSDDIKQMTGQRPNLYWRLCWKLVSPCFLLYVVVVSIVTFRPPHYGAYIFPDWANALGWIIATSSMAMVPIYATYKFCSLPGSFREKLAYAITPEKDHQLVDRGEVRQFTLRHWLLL
Method: as §1, with “striatum” for “frontal cortex”
as §2, with “μl” for “μL”, “DA” for “5-HT”, “2” for “8”
The uptake value when only solvent was added was set as 100%, the uptake value when unlabeled DA (final concentration 10 μM) was added as 0% (nonspecific uptake value), and the 50% inhibitory concentration was calculated from the concentration of the test compound and its inhibitory activity.

[3] = target: T3, CYP2C9 (Homo sapiens, UniProt P11712); experiment: CYP inhibition test (1): inhibition rate (%) at one concentration, CYP2C9; type: in vitro ADME; conditions: human liver microsomes, pH 7.4, probe diclofenac (0.005 mmol/L); test compound 0.01 mmol/L, human liver microsome 0.1 mg/mL, substrate diclofenac, 37° C. 10 minutes; read-out: inhibition rate (%) 2C9
T3 construct: a human liver microsome solution containing three CYP-specific substrates; from tissue; host or cells: human liver microsomes
T3 sequence (P11712 whole entry): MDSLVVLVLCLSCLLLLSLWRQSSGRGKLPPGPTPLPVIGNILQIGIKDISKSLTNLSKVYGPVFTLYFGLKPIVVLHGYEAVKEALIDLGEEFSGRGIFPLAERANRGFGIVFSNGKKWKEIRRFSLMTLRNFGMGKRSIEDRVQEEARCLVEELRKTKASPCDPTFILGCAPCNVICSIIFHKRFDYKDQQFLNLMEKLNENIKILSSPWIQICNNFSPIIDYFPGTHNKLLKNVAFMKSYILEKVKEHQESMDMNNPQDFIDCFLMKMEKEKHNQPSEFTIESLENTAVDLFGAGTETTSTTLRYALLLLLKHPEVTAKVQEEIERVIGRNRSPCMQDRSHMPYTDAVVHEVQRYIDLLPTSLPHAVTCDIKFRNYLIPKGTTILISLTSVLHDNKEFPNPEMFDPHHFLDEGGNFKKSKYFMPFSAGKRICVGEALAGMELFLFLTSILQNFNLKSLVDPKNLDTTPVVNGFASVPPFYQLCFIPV
Method: A metabolic reaction was initiated by adding and mixing a test compound solution (final concentration 0.01 mmol/L) and a NADH/NADPH solution (final concentration 1 mmol/L) to a human liver microsome solution containing three CYP-specific substrates (final concentration 100 mmol/L potassium phosphate buffer solution (pH 7.4), 5 mmol/L magnesium chloride, 0.1 mg/mL human liver microsome, 0.005 mmol/L diclofenac (for CYP2C9), 0.01 mmol/L bufuralol (for […]), 0.005 mmol/L midazolam (for CYP3A4)). As an internal standard solution, a solution of each of stable isotopes of the metabolites (50 ng/mL [13C6] hydroxy diclofenac, 5 ng/mL [2H9] hydroxy bufuralol, and 5 ng/mL [13C6] hydroxy midazolam (all stable isotopes)) in methanol was prepared and used as a quenching solution.
Specifically, a metabolic reaction was initiated by adding and mixing 2 μL of a solution of a test compound in acetonitrile (or acetonitrile as a control) to 178 μL of a human liver microsome solution in ice water, followed by preincubation at 37° C. for 1 minute, and then adding 20 μL of a NADH/NADPH solution thereto. After incubation at 37° C. for 10 minutes, 50 μL of the reaction mixture was taken, and then it was added and mixed to 500 μL of a quenching solution to quech the reaction. The mixture was centrifuged (6130 g, 4° C., 10 minutes) and the supernatant was used as a sample for LC-MS/MS.
Peak area ratio ([peak area of metabolite]/[peak area of corresponding stable isotope]) was calculated for a metabolite and a stable isotope of the metabolite as measurement object. By comparing the peak area ratio of each test compound solution with that of the control, the inhibition rate (%) of each CYP species for each test compound was calculated from (1-[peak area ratio of each test compound solution]/[peak area ratio of control])×100.

IC50 [1] [nM]	IC50 [2] [nM]	inhibition at 10 min, 0.01 mmol/L [3] [%]	Structure (SMILES)
60.1	25.6		CC1(C)CN(c2cc(F)c(OCCO)c(F)c2)[C@H]2CCCC[C@H]2N1 [Example 36]
87.4	81.9		CN1[C@H]2CCCC[C@@H]2N(c2ccc(OC(F)(F)CO)cc2)CC1(C)C [Example 37, 2,2-difluoro-2-(4-((4aS,8aS)-3,3,4-trimethyloctahydroquinoxalin-1(2H)-yl)phenoxy)ethan-1-ol]
15.3	37.5	-11.4	CC1(C)CN(c2ccc(OCCO)c(Cl)c2)[C@H]2CCCC[C@H]2N1 [Example 44, 2-(2-chloro-4-((4aR,8aS)-3,3-dimethyloctahydroquinoxalin-1(2H)-yl)phenoxy)ethan-1-ol 1/2fumarate]
57.4	68.6	-0.7	Cc1cc(N2CC(C)(C)N[C@@H]3CCCC[C@@H]32)ccc1OC(F)(F)CO [Example 48]
7.7	214	-7.6	CC1(C)CN(c2ccc(OCCO)c3occc23)[C@@H]2CCCC[C@@H]2N1 [Example 50]
17	41.1	-8.3	CC1(C)CN(c2ccc(OCCO)c3occc23)[C@H]2CCCC[C@H]2N1 [Example 51]
55	74.4	9.2	CC1(C)CN(c2ccc(OCCO)c(F)c2)[C@H]2CCCC[C@H]2N1 [Example 52]
30.3	88	9.3	Cc1c(N2CC(C)(C)N[C@@H]3CCCC[C@@H]32)ccc(OC(F)(F)CO)c1F [Example 57]
22.9	58.4	2.8	Cc1cc(N2CC(C)(C)N[C@@H]3CCCC[C@@H]32)cc(F)c1OC(F)(F)CO [Example 58]
9	60.2	6.8	CC1(C)CN(c2ccc(OC(F)(F)CO)cc2F)[C@H]2CCCC[C@H]2N1 [Example 61, 2-(4-((4aR,8aS)-3,3-dimethyloctahydroquinoxalin-1(2H)-yl)-3-fluorophenoxy)-2,2-difluoroethan-1-ol 1/2fumarate]
8.6	273	4.6	CC1(C)CN(c2cc(Br)c(OCCO)cc2F)[C@H]2CCCC[C@H]2N1 [Example 62]
5.1	85.1	1.1	CC1(C)CN(c2ccc(OCCO)c(Br)c2F)[C@H]2CCCC[C@H]2N1 [Example 63]
8.8	78.9	10.2	CC1(C)CN(c2ccc(OCCO)cc2Cl)[C@H]2CCCC[C@H]2N1 [Example 64, 2-(3-chloro-4-((4aR,8aS)-3,3-dimethyloctahydroquinoxalin-1(2H)-yl)phenoxy)ethan-1-ol 1/2fumarate]
5.7	91.4	14.8	Cc1c(OC(F)(F)CO)ccc(N2CC(C)(C)N[C@H]3CCCC[C@H]32)c1F [Example 69, 2-(4-((4aS,8aR)-3,3-dimethyloctahydroquinoxalin-1(2H)-yl)-3-fluoro-2-methylphenoxy)-2,2-difluoroethan-1-ol 1/2fumarate]
7	44.5	15.8	Cc1c(OC(F)(F)CO)ccc(N2CC(C)(C)N[C@@H]3CCCC[C@@H]32)c1F [Example 70]

More lines, now with the values behind:

Structure (SMILES)	IC50 [1] [nM]	IC50 [2] [nM]	inhibition at 10 min, 0.01 mmol/L [3] [%]
OCCOc1c(F)cc(N2CC3(CCC3)N[C@H]3CCCC[C@@H]32)cc1Cl [Example 6]	6.1	5.8	-6.4
OCCOc1ccc(N2CC3(CCC3)N[C@H]3CCCC[C@@H]32)cc1 [Example 8]	10	49.5	8.1
COc1cc(N2CC3(CCC3)N[C@H]3CCCC[C@@H]32)ccc1OCCO [Example 11]	39.6	97.9	7.5
Cc1cc(N2CC3(CCC3)N[C@H]3CCCC[C@@H]32)cc(F)c1OCCO [Example 14]	5.8	5.5	13.6
C[C@@H]1CN(c2cc(F)c(OCCO)c(Cl)c2)[C@H]2CCCC[C@@H]2N1 [Example 17, 2-(2-chloro-6-fluoro-4-((3R,4aS,8aS)-3-methyloctahydroquinoxalin-1(2H)-yl)phenoxy)ethan-1-ol 1/2fumarate]	7.3	7.6	
C[C@H]1CN(c2cc(F)c(OCCO)c(Cl)c2)[C@H]2CCCC[C@H]2N1 [Example 18]	73.1	42.9	
C[C@@H]1CN(c2ccc(OC(F)(F)CO)c(Cl)c2)[C@H]2CCCC[C@@H]2N1 [Example 19]	62.7	47.4	5.8
CC1(C)CN(c2ccc(OC(F)(F)CO)cc2)[C@H]2CCCC[C@@H]2N1 [Example 20, 2-(4-((4aS,8aS)-3,3-dimethyloctahydroquinoxalin-1(2H)-yl)phenoxy)-2,2-difluoroethan-1-ol]	4.7	90.9	
CC1(C)CN(c2ccc(OC(F)(F)CO)cc2)[C@@H]2CCCC[C@H]2N1 [Example 21]	89.9	199	
COc1cc(N2CC(C)(C)N[C@H]3CCCC[C@@H]32)ccc1OC(F)(F)CO [Example 26]	18.1	213	
CC1(C)CN(c2ccc(OCCO)c(Cl)c2)[C@H]2CCCC[C@@H]2N1 [Example 27, 2-(2-chloro-4-((4aS,8aS)-3,3-dimethyloctahydroquinoxalin-1(2H)-yl)phenoxy)ethan-1-ol]	7.6	99	
CC1(C)CN(c2ccc(OCCO)c(Cl)c2)[C@@H]2CCCC[C@H]2N1 [Example 28]	55.1	76.5	
Cc1cc(N2CC(C)(C)N[C@H]3CCCC[C@@H]32)ccc1OC(F)(F)CO [Example 31]	26.6	56.4	
Cc1cc(N2CC(C)(C)N[C@@H]3CCCC[C@H]32)ccc1OC(F)(F)CO [Example 32]	98.3	60.7	
CC1(C)CN(c2cc(F)c(OCCO)c(F)c2)[C@H]2CCCC[C@@H]2N1 [Example 34, 2-(4-((4aS,8aS)-3,3-dimethyloctahydroquinoxalin-1(2H)-yl)-2,6-difluorophenoxy)ethan-1-ol]	8.9	73.2	
CC1(C)CN(c2cc(F)c(OCCO)c(F)c2)[C@@H]2CCCC[C@H]2N1 [Example 35]	71	59.7	
